Assays:
sedge, umbrella = experiment: Test B flooded paddy test; type: in vivo, Cyperus difformis; conditions: Flood, scale of 0 to 100 where 0 is no effect and 100 is complete control
Procedure, shortened: (§1)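 Visual ratings from 0, meaning no effect, up to 100, meaning complete control, were made by comparison with untreated controls 13 to 15 days after treatment. Test compounds went straight into floodwater standing 3 cm over the soil of pots holding 2-leaf seedlings.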

velvetleaf = experiment: Test A pre-/postemergence herbicide test; type: in vivo, Abutilon theophrasti
Procedure, shortened: (§2)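 Seeds sown in loam soil/sand blend received a preemergence directed soil spray of test chemical in non-phytotoxic solvent with surfactant; postemergence plants (2–10 cm, one- to two-leaf stage) were sprayed with the same formulation. After about 10 days in greenhouse, injury was rated visually versus untreated controls, 0 (no effect) to 100 (complete control).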

crabgrass, large = experiment: Test A pre-/postemergence herbicide test; type: in vivo, Digitaria sanguinalis
Procedure, shortened: as §2

giant foxtail = experiment: Test A pre-/postemergence herbicide test; type: in vivo, Setaria faberii
Procedure, shortened: as §2

rice = experiment: Test B flooded paddy test; type: in vivo, Oryza sativa; conditions: Flood, scale of 0 to 100 where 0 is no effect and 100 is complete control
Procedure, shortened: as §1

barnyardgrass [1] = experiment: Test B flooded paddy test; type: in vivo, Echinochloa crus-galli; conditions: Flood, scale of 0 to 100 where 0 is no effect and 100 is complete control
Procedure, shortened: as §1

ducksalad = experiment: Test B flooded paddy test; type: in vivo, Heteranthera limosa; conditions: Flood, scale of 0 to 100 where 0 is no effect and 100 is complete control
Procedure, shortened: as §1

corn = experiment: Test A pre-/postemergence herbicide test; type: in vivo, Zea mays
Procedure, shortened: as §2

morningglory = experiment: Test A pre-/postemergence herbicide test; type: in vivo, Ipomoea spp.
Procedure, shortened: as §2

wheat = experiment: Test A pre-/postemergence herbicide test; type: in vivo, Triticum aestivum
Procedure, shortened: as §2

pigweed = experiment: Test A pre-/postemergence herbicide test; type: in vivo, Amaranthus retroflexus
Procedure, shortened: as §2

barnyardgrass [2] = experiment: Test A pre-/postemergence herbicide test; type: in vivo, Echinochloa crus-galli
Procedure, shortened: as §2

[3] = 125 g ai/ha, visual rating, 0 to 100 scale, 0 no effect, 100 complete control, approximately 10 days, preemergence
[4] = Postemergence, 125 g ai/ha, 0 to 100 scale, 0 is no effect, 100 is complete control
[5] = preemergence, 500 g ai/ha, 0 to 100 scale, 0 is no effect and 100 is complete control
[6] = Postemergence, 500 g ai/ha, 0 to 100 scale (0 no effect, 100 complete control)
[7] = Preemergence, 125 g ai/ha, 0 to 100 scale where 0 is no effect and 100 is complete control

Structure (SMILES)	Plant response rating, Sedge, Umbrella (sedge, umbrella; 250 g ai/ha)	Plant response rating, Sedge, Umbrella (sedge, umbrella; 1000 g ai/ha)	Plant response rating, Velvetleaf (velvetleaf; [4])	Plant response rating, Velvetleaf (velvetleaf; [5])	Plant response rating, Crabgrass, Large (crabgrass, large; [4])	Plant response rating, Crabgrass, Large (crabgrass, large; [5])	Plant response rating, Foxtail, Giant (giant foxtail; [4])	Plant response rating, Foxtail, Giant (giant foxtail; [5])	Plant response rating, Rice (rice; 250 g ai/ha)	Plant response rating, Rice (rice; 1000 g ai/ha)	Plant response rating, Corn (corn; [4])	Plant response rating, Corn (corn; [5])	Plant response rating, Morningglory (morningglory; [4])	Plant response rating, Morningglory (morningglory; [5])	Plant response rating, Wheat (wheat; [4])	Plant response rating, Wheat (wheat; [5])	Plant response rating, Pigweed (pigweed; [4])	Plant response rating, Pigweed (pigweed; [5])	Plant response rating, Barnyardgrass (barnyardgrass [2]; [4])	Plant response rating, Barnyardgrass (barnyardgrass [2]; [5])	further results
COc1ccc(C2CNC(=O)C2C(=O)Nc2cccc(F)c2F)cc1F (racemic) [Compound 198]	0	0	0	0	50	100	10	80	0	15	0	0	0	0	0	0	0	0	50	90	Plant response rating, Velvetleaf (velvetleaf; [3]): 0; Velvetleaf plant response rating (0 to 100 scale, 0 is no effect, 100 is complete control) (velvetleaf; Postemergence, 500 g ai/ha): 0; Plant response rating, Crabgrass, Large (crabgrass, large; [3]): 90; Crabgrass, Large plant response rating (0 to 100 scale, 0 is no effect, 100 is complete control) (crabgrass, large; Postemergence, 500 g ai/ha): 80; Plant response rating, Foxtail, Giant (giant foxtail; [3]): 50; Foxtail, Giant plant response rating (0 to 100 scale, 0 is no effect, 100 is complete control) (giant foxtail; Postemergence, 500 g ai/ha): 60; Plant response rating, Barnyardgrass (barnyardgrass [1]; 250 g ai/ha): 0; Plant response rating, Barnyardgrass (barnyardgrass [1]; 1000 g ai/ha): 65; Plant response rating, Ducksalad (ducksalad; 250 g ai/ha): 70; Plant response rating, Ducksalad (ducksalad; 1000 g ai/ha): 95; Plant response rating, Corn (corn; [3]): 0; Corn plant response rating (0 to 100 scale, 0 is no effect, 100 is complete control) (corn; Postemergence, 500 g ai/ha): 0; Plant response rating, Morningglory (morningglory; [3]): 0; Morningglory plant response rating (0 to 100 scale, 0 is no effect, 100 is complete control) (morningglory; Postemergence, 500 g ai/ha): 0; Plant response rating, Wheat (wheat; [3]): 0; Wheat plant response rating (0 to 100 scale, 0 is no effect, 100 is complete control) (wheat; Postemergence, 500 g ai/ha): 0; Plant response rating, Pigweed (pigweed; [3]): 0; Pigweed plant response rating (0 to 100 scale, 0 is no effect, 100 is complete control) (pigweed; Postemergence, 500 g ai/ha): 0; Plant response rating, Barnyardgrass (barnyardgrass [2]; [3]): 50; Barnyardgrass plant response rating (0 to 100 scale, 0 is no effect, 100 is complete control) (barnyardgrass [2]; Postemergence, 500 g ai/ha): 80
COc1ccc(C2CNC(=O)C2C(=O)Nc2ccccc2C(F)(F)F)cc1F (racemic) [Compound 199]	0	0	0	0	60	100	0	90	0	0	0	0	0	0	0	0	0	0	50	60	Plant response rating, Velvetleaf (velvetleaf; [3]): 0; Velvetleaf plant response rating (0 to 100 scale, 0 is no effect, 100 is complete control) (velvetleaf; Postemergence, 500 g ai/ha): 40; Plant response rating, Crabgrass, Large (crabgrass, large; [3]): 90; Crabgrass, Large plant response rating (0 to 100 scale, 0 is no effect, 100 is complete control) (crabgrass, large; Postemergence, 500 g ai/ha): 80; Plant response rating, Foxtail, Giant (giant foxtail; [3]): 50; Foxtail, Giant plant response rating (0 to 100 scale, 0 is no effect, 100 is complete control) (giant foxtail; Postemergence, 500 g ai/ha): 50; Plant response rating, Barnyardgrass (barnyardgrass [1]; 250 g ai/ha): 20; Plant response rating, Barnyardgrass (barnyardgrass [1]; 1000 g ai/ha): 20; Plant response rating, Ducksalad (ducksalad; 250 g ai/ha): 90; Plant response rating, Ducksalad (ducksalad; 1000 g ai/ha): 80; Plant response rating, Corn (corn; [3]): 0; Corn plant response rating (0 to 100 scale, 0 is no effect, 100 is complete control) (corn; Postemergence, 500 g ai/ha): 0; Plant response rating, Morningglory (morningglory; [3]): 0; Morningglory plant response rating (0 to 100 scale, 0 is no effect, 100 is complete control) (morningglory; Postemergence, 500 g ai/ha): 0; Plant response rating, Wheat (wheat; [3]): 0; Wheat plant response rating (0 to 100 scale, 0 is no effect, 100 is complete control) (wheat; Postemergence, 500 g ai/ha): 0; Plant response rating, Pigweed (pigweed; [3]): 0; Pigweed plant response rating (0 to 100 scale, 0 is no effect, 100 is complete control) (pigweed; Postemergence, 500 g ai/ha): 0; Plant response rating, Barnyardgrass (barnyardgrass [2]; [3]): 0; Barnyardgrass plant response rating (0 to 100 scale, 0 is no effect, 100 is complete control) (barnyardgrass [2]; Postemergence, 500 g ai/ha): 70
O=C1NCC(c2ccc(F)c(F)c2)C1C(=O)Nc1cccc(C(F)(F)F)n1 (racemic) [Compound 245]		0	20	0	20	80	20	70		0	0	0	0	0	0	0	40	30	30	20	Plant response rating, Velvetleaf (velvetleaf; [6]): 40; Plant response rating, Velvetleaf (velvetleaf; [7]): 0; Plant response rating, Crabgrass, Large (crabgrass, large; [6]): 30; Plant response rating, Crabgrass, Large (crabgrass, large; [7]): 60; Plant response rating, Foxtail, Giant (giant foxtail; [6]): 30; Plant response rating, Foxtail, Giant (giant foxtail; [7]): 60; Plant response rating, Barnyardgrass (barnyardgrass [1]; 1000 g ai/ha): 20; Plant response rating, Ducksalad (ducksalad; 1000 g ai/ha): 90; Plant response rating, Corn (corn; [6]): 0; Plant response rating, Corn (corn; [7]): 0; Plant response rating, Morningglory (morningglory; [6]): 0; Plant response rating, Morningglory (morningglory; [7]): 0; Plant response rating, Wheat (wheat; [6]): 40; Plant response rating, Wheat (wheat; [7]): 0; Plant response rating, Pigweed (pigweed; [6]): 40; Plant response rating, Pigweed (pigweed; [7]): 0; Plant response rating, Barnyardgrass (barnyardgrass [2]; [6]): 50; Plant response rating, Barnyardgrass (barnyardgrass [2]; [7]): 20
O=C1NCC(c2ccc(OC(F)(F)F)cc2)C1C(=O)Nc1ccccc1F (racemic) [Compound 256]	50		0	0	70	90	40	60	0		0	0	0	0	0	0	0	0	0	20	Plant response rating, Velvetleaf (velvetleaf; [6]): 0; Plant response rating, Velvetleaf (velvetleaf; [7]): 0; Plant response rating, Crabgrass, Large (crabgrass, large; [6]): 90; Plant response rating, Crabgrass, Large (crabgrass, large; [7]): 80; Plant response rating, Foxtail, Giant (giant foxtail; [6]): 70; Plant response rating, Foxtail, Giant (giant foxtail; [7]): 20; Plant response rating, Barnyardgrass (barnyardgrass [1]; 250 g ai/ha): 0; Plant response rating, Ducksalad (ducksalad; 250 g ai/ha): 60; Plant response rating, Corn (corn; [6]): 0; Plant response rating, Corn (corn; [7]): 0; Plant response rating, Morningglory (morningglory; [6]): 0; Plant response rating, Morningglory (morningglory; [7]): 0; Plant response rating, Wheat (wheat; [6]): 20; Plant response rating, Wheat (wheat; [7]): 0; Plant response rating, Pigweed (pigweed; [6]): 0; Plant response rating, Pigweed (pigweed; [7]): 0; Plant response rating, Barnyardgrass (barnyardgrass [2]; [6]): 20; Plant response rating, Barnyardgrass (barnyardgrass [2]; [7]): 0

Source: US10294202B2, “Pyrrolidinones as herbicides” (FMC Corporation, priority 2013, dated 2019)
